Test results: patent US11932874B2, “Method for culturing mesenchymal stem cells using gamma-irradiated serum” (R Bio CO., Ltd., priority 2018, dated 2024)

How the values were obtained:
Assay type in all cases: cell-based
[1] = test system: human adipose tissue-derived stem cells; assay: Culture of stem cells in AMSC+ medium with 25 kGy gamma-irradiated FBS and vitamin C post-treatment (Example 2): cell number, doubling time; settings: for Cell No. / Doubling time: Ad-MSC (P4)
Method: Fetal bovine serum (FBS) was irradiated with 25 kGy of gamma radiation (Soyagreentec Co., Ltd.), thereby preparing gamma-irradiated FBS. Then, the human adipose tissue-derived stem cells at passage 3, isolated in Example 1, were thawed and inoculated into T75 flasks at a concentration of 0.5×10^6 cells/T75 flask, and the inoculated cells were cultured with AMSC+ culture medium (R-Bio Co., Ltd.) containing the prepared gamma-irradiated FBS at a concentration of 5% in a CO2 incubator at 37° C. for 2 days. After 2 days of culture, the medium was removed and replaced with either AMSC+ culture medium containing 5% gamma-irradiated FBS (a negative control group) or medium obtained by adding vitamin C (ascorbic acid; L-Ascorbic Acid 2-phosphate) to AMSC+ culture medium containing 5% gamma-irradiated FBS (a vitamin C post-treatment test group). Vitamin C was added to the culture medium at concentrations of 0.025, 0.05, 0.1 and 1%. The AMSC+ culture medium (R-Bio Co., Ltd.) is a 1:1 mixture of KSFM-P medium (containing Defined Keratinocyte-SFM, 0.2 mM L-ascorbic acid 2-phosphate, 5 μg/ml insulin, 2 mM N-acetyl-L-cysteine, 0.09 mM calcium chloride, 74 ng/ml hydrocortisone and 5% FBS) and DMEM medium. After 4 days of culture, the cell proliferation rate and doubling time of the cells were examined. The viability of the cells was examined with a microscope and a hemocytometer, and the doubling time was calculated using the following equation: Doubling Time=duration×log(2)/log(final concentration)−log(initial concentration). [Equation 1] A positive control group was cultured using 5% normal FBS (which was not irradiated with gamma radiation) and AMSC+ culture medium in the same manner as the negative control group and the test group.

[2] = test system: human adipose tissue-derived stem cells; assay: Adhesion of stem cells cultured in 25 kGy gamma-irradiated FBS: time at which stem cell density reached 90% (Example 4); settings: 25 kGy FBS, passage 0 cells
Method: In the same manner as described in Example 3 above, fetal bovine serum (FBS) was irradiated with 25 kGy of gamma radiation, thereby preparing gamma-irradiated FBS. Vitamin C (ascorbic acid; L-Ascorbic Acid 2-phosphate) was added to the FBS which was then irradiated with 25 kGy of gamma irradiation, thereby preparing gamma-irradiated FBS pretreated with vitamin C. The vitamin C was added to the FBS at a concentration of 1%. Then, the human adipose tissue-derived stem cells at passage 0, isolated in Example 1, were thawed and inoculated into T25 flasks at a concentration of 1.7×10^3 cells/T25 flask, and the inoculated cells were cultured with AMSC+ culture medium (R-Bio Co., Ltd.) containing the prepared gamma-irradiated FBS or gamma-irradiated FBS pretreated with vitamin C at a concentration of 5% in a CO2 incubator at 37° C. for 2 days. After 2 days of culture, the medium was removed and replaced with AMSC+ culture medium containing 5% gamma-irradiated FBS (a negative control group), medium obtained by adding vitamin C to AMSC+ culture medium containing 5% gamma-irradiated FBS (a vitamin C post-treatment test group), or AMSC+ culture medium containing 5% gamma-irradiated FBS pretreated with vitamin C (a vitamin C pre-treatment test group). Vitamin C was added to the culture medium or FBS at a concentration of 1%. A positive control group was also prepared as described in Examples 2 and 3 above. For each control group and the test group, examination was performed of the time at which the density of the stem cells reached 90% so that these cells could be sub-cultured.

[3] = test system: human adipose tissue-derived stem cells; assay: Expression of stem cell CD markers by FACS (Example 7); design: CD73 expression (FACS) / CD31 expression (FACS) / CD34 expression (FACS) / CD45 expression (FACS): unit not given here; settings: for CD31 expression (FACS) / CD34 expression (FACS) / CD45 expression (FACS) / CD73 expression (FACS) / CD90 expression (FACS): 30 kGy FBS; for CD90 expression (FACS): in % (unit assumed)
Method: For the positive control group and vitamin C post-treatment test group of Example 6, the purity and characteristics of the stem cells at passage 4 were examined. The purity of the stem cells was examined by analyzing the expression of CD markers using FACS (FIG. 12 and Table 10), and the characteristics of the stem cells were examined by analyzing differentiation into adipocytes, osteocytes and chondrocytes (FIGS. 13 to 15). Differentiation into adipocytes was analyzed by oil red 0 staining according to the Sigma-Aldrich protocol, and differentiation into osteocytes was analyzed by alizarin red S staining according to the Lifeline Cell Tech's protocol, and differentiation into chondrocytes was analyzed by TSP2 ELISA.

[4] = 25 KGy FBS + 0.025% AA2P added to medium, 4 days of culture
[5] = 25 KGy FBS + 0.05% AA2P added to medium, 4 days of culture
[6] = 25 KGy FBS + 0.1% AA2P added to medium, 4 days of culture
[7] = 25 KGy FBS + 1% AA2P added to medium, 4 days of culture
[8] = vitamin C post-treatment, 25 kGy FBS, 4 days of culture
[9] = Stem cells #1 P4, 1% vitamin C post-treatment
[10] = Stem cells #2 P4, 1% vitamin C post-treatment
[11] = Stem cells #3 P4, 1% vitamin C post-treatment

## O=C1O[C@H]([C@@H](O)CO)C(O)=C1OP(=O)(O)O [AA2P, L-Ascorbic Acid 2-phosphate]
[1]; [4]
  Cell No.: 10.035 ×10^6 cells
  Doubling time: 31.33 h
[1]; [5]
  Cell No.: 9.5 ×10^6 cells
  Doubling time: 32.16 h
[1]; [6]
  Cell No.: 10.6 ×10^6 cells
  Doubling time: 30.54 h
[1]; [7]
  Cell No.: 12 ×10^6 cells
  Doubling time: 28.9 h
[1]; [8]
  cell number versus negative control group: increased compared to the negative control group
  doubling time versus negative control group: decreased compared to the negative control group
[1]; vitamin C post-treatment, 25 kGy FBS, days 0, 1 and 4 (FIG. 1)
  microscope observation of stem cells: levels similar to those of the positive control group
[2]; Post-treatment with 1% Vit. C
  Density (90%): day of culture on which stem cell density reached 90%: Day 10
[2]; Post-treatment with 1% Vit. C, listed as vitamin C
  Density (90%): day of culture on which stem cell density reached 90%: 13 days
[2]; Pre-treatment with 1% Vit. C
  Density (90%): day of culture on which stem cell density reached 90%: Day 13
[2]; Pre-treatment with 1% Vit. C, listed as vitamin C
  Density (90%): day of culture on which stem cell density reached 90%: 10 days
[3]; 30 KGy gamma radiation, post-treated with 1% vitamin C, passage 4
  expression of CD markers versus positive control group: did not differ from that in the positive control group
[3]; [9]
  CD31 expression (FACS): 0.52
  CD34 expression (FACS): 0.31
  CD45 expression (FACS): 0.49
  CD73 expression (FACS): 94.30
  CD90 expression (FACS): 99.98
[3]; [10]
  CD31 expression (FACS): 0.16
  CD34 expression (FACS): 0.14
  CD45 expression (FACS): 0.11
  CD73 expression (FACS): 93.42
  CD90 expression (FACS): 99.99
[3]; [11]
  CD31 expression (FACS): 0.47
  CD34 expression (FACS): 0.70
  CD45 expression (FACS): 0.78
  CD73 expression (FACS): 91.45
  CD90 expression (FACS): 99.99
